Patent US20110028438A1, “MEDICAL USE OF 3-2,2,2-TRIMETHYLHYDRAZINIUM PROPIONATE SALTS” (JSC GRINDEKS, priority 2007, published 2011)
Marks after values point to notes of the source that are not given here.

Columns and labels:
adult male Wistar rats = test: Myocardial infarction in vivo (coronary artery occlusion and 120 minute reperfusion); set-up: species or system rat; conditions: for Area of Necrosis, % of Area at Risk / Area of Risk/left ventricle area / Infarct size, % of control: rats, 100 mg/kg by mouth for 14 days; for Area of Necrosis, % of Area at Risk: after 120 minute reperfusion; for Area of Risk/left ventricle area: area at risk expressed as percentage of the left ventricle; for Infarct size, % of control: relative to saline control group; for Therapeutic effect in in vivo myocardial infarction model compared with Meldonium dihydrate: result in words
Description: Experiments were conducted on adult male Wistar rats with initial weight of 300-350 g. During the experiment, the animals were kept in Standard crates in groups of 8. The feed was a standardized diet R70 (LABFOR, Lactamin AB, Sweden). The room temperature was kept at 21-23° C., relative humidity at 65±10%, 12 hour light/darkness cycle.
Rats weighing approximately 300 g were randomly divided into 4 groups of 8 animals each. The first group received saline by mouth (control group), the second received 100 mg/kg Meldonium dihydrate by mouth, the third 100mg/kg Meldonium hydrogen fumarate and the fourth 100 mg/kg Meldonium dihydrogen phosphate received for 14 days.
Rats were anesthetized with sodium pentobarbital (60 mg/kg i.p.). They were intubated and artificially respirated with rodent respirator (Rodent Ventilator 7025, Ugo Basile, (tally) with 15 mL/kg room air at a respiration rate of 55 breaths/min. Thoracic was open on the left side of breastbone by cutting fourth and fifths, if necessary, ribs. The pericard was open and 5/0 polypropylene suture (Surgipro II, Syneture) was passed under the left anterior descending coronary artery and threaded through a small plastic tube to permit reversible occlusion of the coronart artery. Coronary flow was measured using an ultrasound flow detector (HSE) and PowerLab 8/30 system from ADlnstruments.
Occlusion was performed by constricting threads through a plastic tube.
At the end of the 120 minute reperfusion, After reperfusion hearts were excised and retrogradely perfused via aorta at a constant pressure of 50 mm Hg, with oxygenated Krebs-Henseleit buffer (content in mmol/L: NaCl 118, Ca Cl2 2.52, MgCl2 1.64, NaHCO3 24.88, KH2PO4 1.18, glucose 10.0, EDTA 0.05) pH 7.3-7.5 at 37° C. Then after 10 min the left anterior descending coronary artery was relegated and the risk zone was delineated with 4 mL of 0.1% methylene blue solution in Krebs-Henseleit buffer infused via the aorta root. Hearts were sectioned transversely from the apex to the base of 2 mm thickness and incubated in 1% triphenyl-tetrazolium chloride in phosphate buffer (pH 7.4, 37° C.) for 10 minutes to stain viable tissue red and necrotic tissue white. Afterward, the right ventricle was cut off and photos of the left-ventricle slices were made with a Minolta 7D photo camera. Computerized planemetric analysis of photographs was performed using Image-Pro Plus 4.5.1 software to determine the area at risk (AR) and area of necrosis (AN) expressed as percentage of the left ventricle (LV). Obtained values were then used to calculate the infarct size (IS) as percentage of risk area according to formula: […]

[1] = as disclosed in EP 1667960 A; cited from earlier work

Compound | Area of Necrosis, % of Area at Risk (adult male Wistar rats) | Area of Risk/left ventricle area (adult male Wistar rats) | Infarct size, % of control (adult male Wistar rats) | Therapeutic effect in in vivo myocardial infarction model compared with Meldonium dihydrate (adult male Wistar rats) | Stability comparatively with Meldonium dihydrate [1]
C[N+](C)(C)NCCC(=O)[O-] [Meldonium dihydrate, 3-(2,2,2-Trimethylhydrazinium) propionate dihydrate, reference compound] | 64.0 ± 2.7 % of Area at Risk | 58.0 ± 2.2 | 99.0 ± 4.2 % of control |  | 
C[N+](C)(C)NCCC(=O)O.O=P([O-])(O)O [Meldonium dihydrogen phosphate, 3-(2,2,2-trimethylhydrazinium) propionate dihydrogen phosphate] | 50.9 ± 2.6*^,# % of Area at Risk | 57.0 ± 3.0 | 79.0 ± 4.1*^,# % of control | statistically better therapeutically effect than Meldonium dihydrate | more stable substance comparatively with Meldonium dihydrate
C[N+](C)(C)NCCC(=O)O.O=C([O-])/C=C/C(=O)O [Meldonium hydrogen fumarate, 3-(2,2,2-trimethylhydrazinium) propionate hydrogen fumarate] | 52.2 ± 4.3 % of Area at Risk | 62.0 ± 3.5 | 81.0 ± 6.6 % of control | more effective as Meldonium dihydrate | more stable substance comparatively with Meldonium dihydrate
